Test results published in US8557872B2, “Compounds, isomer thereof, or pharmaceutically acceptable salts thereof as vanilloid receptor antagonist; and pharmaceutical compositions containing the same” (Amorepacific Corporation, priority 2008, dated 2013).
pIC50: −log10 of the molar value.

target: T1, vanilloid receptor (Rattus norvegicus, UniProt O35433); test: 45Ca influx test (calcium uptake) in primary cultured DRG neurons, capsaicin 0.5 μM; format: cell-based; conditions: comparison with comparative compounds F and G; read-out: IC50 value
T1 construct: DRG nerve cells from the primary culture of 2 days were equilibrated by washing 4 times; endogenous in cells; host or cells: primary culture of dorsal root ganglion neurons from neonatal SD rats
Protocol: 1) Separation of Spinal Dorsal Root Ganglia (DRG) in Newborn Rats and Primary Culture Thereof
Neonatal (2-3 day old or younger than 2-3 day old) SD rats were put in ice for 5 minutes to anesthetize and disinfected with 70% ethanol. […] The DRG were incubated sequentially at 37° C. for 30 mins in 200 U/ml collagenase and 2.5 mg/ml trypsin, separately. The ganglia were washed twice with DME/F12 medium supplemented with 10% horse serum, triturated through a fire-polished Pasteur pipette, filtered through Nitex 80 membrane to obtain single cell suspension and the suspension was washed once more. This was subjected to centrifugation, then resuspended in cell culture medium at certain level of cell density. As the cell culture medium, DME/F12 medium supplemented with 10% horse serum was diluted with identical medium conditioned by C6 glioma cells 2 days on a confluent monolayer (1:1), and NGF (Nerve Growth Factor) was added to adjust 200 ng/ml as final concentration. After the cells were grown 2 days in medium where cytosine arabinoside (Ara-C, 100 μM) was added to kill dividing nonneuronal cells, medium was changed to one without Ara-C. The resuspended cells were plated at a density of 1500-2000 neurons/well onto Terasaki plates previously coated with 10 μg/ml poly-D-ornithine.
2) ^45Ca Influx Experiments
DRG nerve cells from the primary culture of 2 days were equilibrated by washing 4 times with HEPES (10 mM, pH 7.4)-buffered Ca^2+, Mg^2+-free HBSS (H-HBSS). The solution in each well was removed from the individual well. Medium containing the test compound plus capsaicin (final concentration 0.5 μM) and ^45Ca (final concentration 10 μCi/ml) in H-HBSS was added to each well and incubated at room temperature for 10 mins. Terasaki plates were washed five times with H-HBSS and dried at room temperature. To each well, 0.3% SDS (10 μl) was added to elute ^45Ca. After the addition of scintillation cocktail of into each well, the amount of ^45Ca influx into neuron was measured by counting radioactivity.

T1 sequence (O35433 whole entry): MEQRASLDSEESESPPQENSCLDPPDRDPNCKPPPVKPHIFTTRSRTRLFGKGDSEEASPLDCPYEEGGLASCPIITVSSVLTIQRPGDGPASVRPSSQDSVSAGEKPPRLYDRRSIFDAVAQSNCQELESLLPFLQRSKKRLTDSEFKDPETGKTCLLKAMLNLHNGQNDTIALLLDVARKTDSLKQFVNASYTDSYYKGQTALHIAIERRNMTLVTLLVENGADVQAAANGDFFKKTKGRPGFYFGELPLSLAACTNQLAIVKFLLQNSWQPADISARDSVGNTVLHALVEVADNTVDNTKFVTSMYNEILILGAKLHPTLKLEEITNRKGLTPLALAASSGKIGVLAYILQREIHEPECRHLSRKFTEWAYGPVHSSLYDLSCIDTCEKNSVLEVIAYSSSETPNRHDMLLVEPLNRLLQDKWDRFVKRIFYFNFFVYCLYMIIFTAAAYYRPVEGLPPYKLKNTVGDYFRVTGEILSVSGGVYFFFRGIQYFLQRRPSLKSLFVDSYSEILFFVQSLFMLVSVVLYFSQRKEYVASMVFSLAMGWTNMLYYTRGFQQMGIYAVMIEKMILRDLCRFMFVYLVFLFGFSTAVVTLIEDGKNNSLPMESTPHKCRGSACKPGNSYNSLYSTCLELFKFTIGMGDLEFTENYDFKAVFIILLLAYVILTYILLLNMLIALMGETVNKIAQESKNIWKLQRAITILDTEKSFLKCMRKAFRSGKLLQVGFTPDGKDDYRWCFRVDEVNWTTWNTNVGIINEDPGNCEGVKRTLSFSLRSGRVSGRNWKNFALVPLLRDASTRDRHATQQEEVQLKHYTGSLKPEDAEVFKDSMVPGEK

pIC50 | Compound
6.82 | C=Cc1cc(CNC(=O)/C=C/c2ccc(C(F)(F)F)cc2NCCC)cc(F)c1NS(C)(=O)=O [Example 12, N-(3-Fluoro-4-methanesulfonylamino-5-vinyl-benzyl)-3-(2-propylamino-4-trifluoromethyl-phenyl)-acrylamide]

same assay, conditions: rat DRG neurons, capsaicin 0.5 μM, 45Ca; read-out: Antagonist Calcium Uptake Test (IC50)

pIC50 | Compound
5.77 | CCOc1cc(C(F)(F)F)ccc1/C=C/C(=O)N[C@H](CC)c1cc(F)c(NS(C)(=O)=O)c(F)c1 (stereo in doubt) [Example 37, N-[1-(3,5-Difluoro-4-methanesulfonylamino-phenyl)-propyl]-3-(2-ethoxy-4-trifluoromethyl-phenyl)-acrylamide]
6.92 | CCCCNc1cc(C(F)(F)F)ccc1/C=C/C(=O)N[C@H](C)c1cc(F)c(NS(C)(=O)=O)c(F)c1 [Example 3, (R)-3-(2-Butylamino-4-trifluoromethyl-phenyl)-N-[1-(3,5-difluoro-4-methanesulfonylamino-phenyl)-ethyl]-acrylamide]
6.42 | CCCOc1cc(C(F)(F)F)ccc1/C=C/C(=O)NCc1cc(F)c(NS(C)(=O)=O)c(F)c1 [Example 4, N-(3,5-Difluoro-4-methanesulfonylamino-benzyl)-3-(2-propoxy-4-trifluoromethyl-phenyl)-acrylamide]
7.59 | CCCc1cc(C(F)(F)F)cc(CCC)c1/C=C/C(=O)N[C@H](C)c1cc(F)c(NS(C)(=O)=O)c(F)c1 [Example 6, (R)—N-[1-(3,5-Difluoro-4-methanesulfonylamino-phenyl)-ethyl]-3-(2,6-dipropyl-4-trifluoromethyl-phenyl)-acrylamide]
6.96 | CCOc1cc(C(F)(F)F)ccc1/C=C/C(=O)N[C@H](C)c1cc(F)c(NS(C)(=O)=O)c(F)c1 [Example 7, (R)—N-[1-(3,5-Difluoro-4-methanesulfonylamino-phenyl)-ethyl]-3-(2-ethoxy-4-trifluoromethyl-phenyl)-acrylamide]
6.07 | CCOc1cc(C(F)(F)F)ccc1/C=C/C(=O)NCc1cc(F)c(NS(C)(=O)=O)c(F)c1 [Example 8, N-(3,5-Difluoro-4-methanesulfonylamino-benzyl)-3-(2-ethoxy-4-trifluoromethyl-phenyl)-acrylamide]
6.47 | CCOc1cc(C(F)(F)F)ccc1/C=C/C(=O)N[C@H](C)c1ccc(NS(C)(=O)=O)c(F)c1 [Example 9, (R)—N-[1-(3-Fluoro-4-methanesulfonylamino-phenyl)-ethyl]-3-(2-ethoxy-4-trifluoromethyl-phenyl)-acrylamide]
7.30 | CCNc1cc(C(F)(F)F)ccc1/C=C/C(=O)N[C@H](C)c1cc(F)c(NS(C)(=O)=O)c(F)c1 [Example 10, (R)—N-[1-(3,5-Difluoro-4-methanesulfonylamino-phenyl)-ethyl]-3-(2-ethylamino-4-trifluoromethyl-phenyl)-acrylamide]
7.21 | CCCNc1cc(C(F)(F)F)ccc1/C=C/C(=O)NCc1cc(C)c(NS(C)(=O)=O)c(F)c1 [Example 11, N-(3-Fluoro-4-methanesulfonylamino-5-methyl-benzyl)-3-(2-propylamino-4-trifluoromethyl-phenyl)-acrylamide]
6.92 | CCCNc1cc(C(F)(F)F)ccc1/C=C/C(=O)NCc1cc(F)c(NS(C)(=O)=O)c(C#N)c1 [Example 13, N-(3-Cyano-5-fluoro-4-methanesulfonylamino-benzyl)-3-(2-propylamino-4-trifluoromethyl-phenyl)-acrylamide]
6.62 | C#Cc1cc(CNC(=O)/C=C/c2ccc(C(F)(F)F)cc2OCCC)cc(F)c1NS(C)(=O)=O [Example 14, N-(3-Ethynyl-5-fluoro-4-methanesulfonylamino-benzyl)-3-(2-propoxy-4-trifluoromethyl-phenyl)-acrylamide]
5.62 | CCOc1cc(C(F)(F)F)ccc1/C=C/C(=O)NCc1cc(F)c(NS(C)(=O)=O)c(C(F)(F)F)c1 [Example 15, 3-(2-Ethoxy-4-trifluoromethyl-phenyl)-N-(3-fluoro-4-methanesulfonylamino-5-trifluoromethyl-benzyl)-acrylamide]
6.66 | CCCCc1cc(C(F)(F)F)cc(CCCC)c1/C=C/C(=O)N[C@H](C)c1cc(F)c(NS(C)(=O)=O)c(F)c1 [Example 16, (R)-3-(2,6-Dibutyl-4-trifluoromethyl-phenyl)-N-[1-(3,5-difluoro-4-methanesulfonylamino-phenyl)-ethyl]-acrylamide]
6.85 | CCc1cc(C(F)(F)F)cc(CC)c1/C=C/C(=O)N[C@H](C)c1cc(F)c(NS(C)(=O)=O)c(F)c1 [Example 17]
7.08 | CCNc1cc(C(F)(F)F)ccc1/C=C/C(=O)NCc1cc(F)c(NS(C)(=O)=O)c(F)c1 [Example 18, N-(3,5-Difluoro-4-methanesulfonylamino-benzyl)-3-(2-ethylamino-4-trifluoromethyl-phenyl)-acrylamide]
6.80 | CCNc1cc(C(F)(F)F)ccc1/C=C/C(=O)NCc1cc(C)c(NS(C)(=O)=O)c(F)c1 [Example 19, 3-(2-Ethylamino-4-trifluoromethyl-phenyl)-N-(3-fluoro-4-methanesulfonylamino-5-methyl-benzyl)-acrylamide]
6.82 | CC(C)Oc1cc(C(F)(F)F)ccc1/C=C/C(=O)NCc1cc(F)c(NS(C)(=O)=O)c(F)c1 [Example 20, N-(3,5-Difluoro-4-methanesulfonylamino-benzyl)-3-(2-isopropoxy-4-trifluoromethyl-phenyl)-acrylamide]
6.57 | CCCc1cc(C(F)(F)F)ccc1/C=C/C(=O)NCc1cc(C)c(NS(C)(=O)=O)c(F)c1 [Example 23, N-(3-Fluoro-4-methanesulfonylamino-5-methyl-benzyl)-3-(2-propyl-4-trifluoromethyl-phenyl)-acrylamide]
6.77 | CCCc1cc(C(F)(F)F)ccc1/C=C/C(=O)N[C@H](CC)c1cc(F)c(NS(C)(=O)=O)c(F)c1 [Example 25, (R)—N-[1-(3,5-Difluoro-4-methanesulfonylamino-phenyl)-propyl]-3-(2-propyl-4-trifluoromethyl-phenyl)-acrylamide]
7.33 | CC(C)Oc1cc(C(F)(F)F)ccc1/C=C/C(=O)N[C@H](C)c1cc(F)c(NS(C)(=O)=O)c(F)c1 [Example 26, (R)—N-[1-(3,5-Difluoro-4-methanesulfonylamino-phenyl)-ethyl]-3-(2-isopropoxy-4-trifluoromethyl-phenyl)-acrylamide]
6.77 | CCCOc1cc(F)ccc1/C=C/C(=O)N[C@H](C)c1cc(F)c(NS(C)(=O)=O)c(F)c1 [Example 27, (R)—N-[1-(3,5-Difluoro-4-methanesulfonylamino-phenyl)-ethyl]-3-(4-fluoro-2-propoxy-phenyl)-acrylamide]
5.96 | CCCOc1cc(F)ccc1/C=C/C(=O)NCc1cc(F)c(NS(C)(=O)=O)c(F)c1 [Example 28, N-(3,5-Difluoro-4-methanesulfonylamino-benzyl)-3-(4-fluoro-2-propoxy-phenyl)-acrylamide]
6.80 | CCCNc1cc(F)ccc1/C=C/C(=O)N[C@H](C)c1cc(F)c(NS(C)(=O)=O)c(F)c1 [Example 29, (R)—N-[1-(3,5-Difluoro-4-methanesulfonylamino-phenyl)ethyl]-3-(4-fluoro-2-propylaminophenyl)-acrylamide]
6.39 | CCCNc1cc(F)ccc1/C=C/C(=O)NCc1cc(F)c(NS(C)(=O)=O)c(F)c1 [Example 30]

Compound | pIC50
CCCCOc1cc(C(F)(F)F)ccc1/C=C/C(=O)N[C@H](CC)c1cc(F)c(NS(C)(=O)=O)c(F)c1 (stereo in doubt) [Example 38, 3-(2-Butoxy-4-trifluoromethyl-phenyl)-N-[1-(3,5-difluoro-4-methanesulfonylamino-phenyl)-propyl]-acrylamide] | 5.96
CCCCOc1cc(C(F)(F)F)ccc1/C=C/C(=O)N[C@H](C)c1cc(F)c(NS(C)(=O)=O)c(F)c1 [Example 31, (R)-3-(2-Butoxy-4-trifluoromethyl-phenyl)-N-[1-(3,5-difluoro-4-methanesulfonylamino-phenyl)-ethyl]-acrylamide] | 6.96
CCCCOc1cc(C(F)(F)F)ccc1/C=C/C(=O)NCc1cc(F)c(NS(C)(=O)=O)c(F)c1 [Example 32, 3-(2-Butoxy-4-trifluoromethyl-phenyl)-N-(3,5-difluoro-4-methanesulfonylamino-benzyl)-acrylamide] | 5.66
CCCCOc1cc(F)ccc1/C=C/C(=O)N[C@H](C)c1cc(F)c(NS(C)(=O)=O)c(F)c1 [Example 33, (R)-3-(2-Butoxy-4-fluoro-phenyl)-N-[1-(3,5-difluoro-4-methanesulfonylamino-phenyl)-ethyl]-acrylamide] | 6.82
CCCCOc1cc(F)ccc1/C=C/C(=O)NCc1cc(F)c(NS(C)(=O)=O)c(F)c1 [Example 34, 3-(2-Butoxy-4-fluoro-phenyl)-N-(3,5-difluoro-4-methanesulfonylamino-benzyl)-acrylamide] | 6.01
